Assay results: PubChem BioAssay AID602191 (Broad Institute, 2012)
Activity calls are given as the source filed them.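 The calls were made as follows: active = fitted curve reaches 40% activation at a concentration no higher than the top valid tested dose; inconclusive = flat fit between 30% and 70% activation, or poor fit; inactive = uptake decrease, flat fit within 30% of zero, the rest.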

Target: Scavenger receptor class B member 1 (Mus musculus) (UniProt Q61009)
Test: enhancers of DiI-HDL lipid transfer via SR-BI – cell-based, ldlA[mSR-BI] CHO, DiI fluorescence, cherry-pick, dose response (AID 602191);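 also: cell fluorescence from internalized DiI-labeled HDL after washing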;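 as to AC40: potency of activators raising HDL uptake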;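 as to activation (HDL uptake increase): 0% = median of DMSO wells and 100% = twice the DMSO signal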
Details: ldlA[mSR-BI] CHO cells, 3 h; for activation (HDL uptake increase): at 35 µM (top of the series); for AC40: DiI-HDL uptake fluorescence

Sequence of Scavenger receptor class B member 1 (Mus musculus) (Q61009 whole entry, looked up): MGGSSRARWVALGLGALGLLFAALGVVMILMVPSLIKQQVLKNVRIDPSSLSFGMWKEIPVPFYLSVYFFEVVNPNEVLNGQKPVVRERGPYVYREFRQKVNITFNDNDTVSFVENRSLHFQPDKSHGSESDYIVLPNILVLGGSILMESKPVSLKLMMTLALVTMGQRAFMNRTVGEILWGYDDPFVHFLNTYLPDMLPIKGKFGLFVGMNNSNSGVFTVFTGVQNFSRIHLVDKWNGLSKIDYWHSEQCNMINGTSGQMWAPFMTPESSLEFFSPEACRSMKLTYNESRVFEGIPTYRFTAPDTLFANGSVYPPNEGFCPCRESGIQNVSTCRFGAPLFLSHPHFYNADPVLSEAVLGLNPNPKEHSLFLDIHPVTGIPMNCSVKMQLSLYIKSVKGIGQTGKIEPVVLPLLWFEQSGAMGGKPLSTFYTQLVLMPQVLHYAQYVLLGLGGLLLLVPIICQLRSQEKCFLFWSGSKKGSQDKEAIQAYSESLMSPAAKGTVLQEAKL

Row | Structure (SMILES) | activation (HDL uptake increase) | AC40
1 | O=C(NCc1cccc(Cl)c1)c1ccc(CS(=O)Cc2ccccc2Cl)o1 (stereo unspecified) | 0.636% (inactive) | 
2 | Cc1ccc(C(=O)NCCCN2CCOCC2)cc1S(=O)(=O)N1CCCCC1 | 9.53% (inactive) | 
3 | O=C(CSc1nnc(CCCOc2ccc(Cl)cc2Cl)o1)Nc1ccc(C(=O)O)cc1 | -4.13% (inactive) | 
4 | Cc1ccccc1-n1nc2c(c1NC(=O)c1ccco1)CS(=O)(=O)C2 | -9.94% (inactive) | 
5 | COCCn1c(=O)[nH]c2cc(C(=O)N3CCN(c4ccccc4OC)CC3)ccc2c1=O | -12.6% (inactive) | 
6 | O=C(CCNC(=O)c1ccccc1Cl)NCC(c1ccc(F)cc1)N1CCOCC1 (stereo unspecified) | -2.65% (inactive) | 
7 | O=C1NC[C@H](Cc2ccccc2)N(C[C@H]2CCCN2C[C@H](Cc2ccccc2)N2C[C@H](Cc3ccccc3)N(CC3CCCCC3)C(=O)C2=O)C1=O | 11.2% (inactive) | 
8 | CC(OC(=O)c1ccc(S(=O)(=O)N2CCCCC2)cc1)C(=O)Nc1ccc(C(N)=O)cc1 (stereo unspecified) | 0.807% (inactive) | 
9 | CCOC(=O)C(NC(=O)CC(C)C)(Nc1sc2c(c1C(N)=O)CCCC2)C(F)(F)F (stereo unspecified) |  | > 35 µM (inactive)
10 | CCCNC(=O)c1onc(CSc2ccc(F)cc2)c1C(=O)NCCOC | -11.4% (inactive) | 
11 | NC(=O)C1CCN(C(=O)C2CC(=O)N(c3ccc4c(c3)OCCO4)C2)CC1 (stereo unspecified) | -4.66% (inactive) | 
12 | O=C(CCN1C(=O)c2ccccc2C1=O)C1=NN[C@@H]2C(=O)N(c3cccc(F)c3)C(=O)[C@H]12 | -9.51% (inactive) | 
13 | Cc1ncc(CN2CCC(n3nccc3NC(=O)c3ccccc3)CC2)s1 | 8.83% (inactive) | 
14 | Cc1c(CCOC(=O)C23CC4(C)CC(C)(CC(C)(C4)C2)C3)sc[n+]1CC(=O)c1ccccc1 |  | > 35 µM (inactive)
15 | CC(=O)Nc1ccc(OC(=O)c2ccco2)cc1 | -1.69% (inactive) | 
16 | O=C1CCC(=O)N1c1ccc(S(=O)(=O)Nc2cccc(Br)c2)cc1 | -7.52% (inactive) | 
17 | COc1ccc(C(=O)N2CCNC(=O)C2)cc1S(=O)(=O)Nc1ccc(Br)cc1 | -3.81% (inactive) | 
18 | CCS(=O)(=O)c1nc(S(=O)(=O)c2ccc(C)cc2)c(N2CCC(C)CC2)s1 | -8.15% (inactive) | 
19 | CCCCNC(=O)CCCCC(=O)N/N=C/c1cccc(Cl)c1 | -17.4% (inactive) | 
20 | COc1ccccc1C(=O)NC(=O)COC(=O)c1cccc(NC(C)=O)c1 | -5.38% (inactive) | 
21 | COc1ccc(C(=O)NCc2nnc(SCC(=O)NCc3ccc(F)cc3)o2)cc1 | -16% (inactive) | 

Row | Structure (SMILES) | activation (HDL uptake increase) | AC40
22 | CNC[C@H]1Oc2c(NS(=O)(=O)c3ccc(OC)cc3)cccc2C(=O)N([C@H](C)CO)C[C@H]1C | 9.97% (inactive) | 
23 | O=C(c1ccc(CS(=O)Cc2ccccc2Cl)o1)N1CCN(C2CCCCC2)CC1 (stereo unspecified) | 2.09% (inactive) | 
24 | Nc1nnc(SCC(=O)NN2C(=O)NC3(CCCCC3)C2=O)s1 | -7.59% (inactive) | 
25 | CCOC(=O)c1c(NC(=O)C2COc3ccccc3O2)sc2c1CC(C)(C)NC2(C)C (stereo unspecified) | -5.51% (inactive) | 
26 | O=C(COc1ccc(C(=O)c2ccccc2)cc1)NC1CCCCC1 | -7.46% (inactive) | 
27 | Cc1cccc(C)c1NC(=O)N1C2CCCC1CC(NC(=O)C(C)(C)C)C2 (stereo unspecified) | 5.39% (inactive) | 
28 | CN(C)CCCNC(=O)/C=C/c1ccc2c(c1)OCO2 | -4.26% (inactive) | 
29 | NCCCC[C@H]1CNC(=O)C(=O)N1CCc1cc(C(F)(F)F)cc(C(F)(F)F)c1 | 6.34% (inactive) | 
30 | CC(CN(C)Cc1ccccc1)OC(=O)c1cccc(F)c1 (stereo unspecified) | -8.97% (inactive) | 
31 | C[C@H](NC(=O)c1nc[nH]c1C(=O)NCc1ccccc1)c1ccccc1 | -1.54% (inactive) | 
32 | CN(C)CCN(C(=O)CN1C(=O)c2ccccc2C1=O)c1nc2cc3c(cc2s1)OCCO3 | -2.04% (inactive) | 
33 | COc1ccccc1Cc1nnnn1CC(=O)O | -7.37% (inactive) | 
34 | Cc1csc(SCC(=O)Nc2cc(C(N)=O)cc(C(N)=O)c2)n1 | -3.94% (inactive) | 
35 | C[C@@H]1CN([C@@H](C)CO)C(=O)Cc2cc(NC(=O)Nc3ccc(C(F)(F)F)cc3)ccc2O[C@@H]1CN(C)S(=O)(=O)c1ccc(Cl)cc1 |  | 31.1 µM
36 | CC(C)CC(=O)c1c(O)c(C=O)c(O)c2c1O[C@@]1(C)[C@@H](C2)C[C@H]2C[C@@H]1C2(C)C | -25.2% (inactive) | 
37 | CNC(=O)c1ccc(N(Cc2ccccc2C)S(C)(=O)=O)cc1 | -9.16% (inactive) | 
38 | COc1ccc(NC(=O)CN(C)C(=O)C2(c3ccccc3)CCCC2)cc1 | -15.3% (inactive) | 
39 | CCN1CCN(C(=O)CCc2nc3ccccc3c(=O)[nH]2)CC1 | 9.34% (inactive) | 
40 | CSCCC(NC(=O)c1ccco1)C(=O)NCc1ccc(F)cc1 (stereo unspecified) | -8.99% (inactive) | 
41 | O=C(C[C@H]1C[C@H](C(=O)N2CCCCC2)[C@@]2(CCc3ccccc3)c3[nH]c4ccc(Cl)cc4c3CCN2C1=O)NCc1cccc(C(F)(F)F)c1 |  | > 35 µM (inactive)
42 | CCOC(=O)C1CCN(S(=O)(=O)c2cc(C(=O)N3CCCCC3)ccc2OC)CC1 | -3.08% (inactive) | 

Row | Structure (SMILES) | activation (HDL uptake increase) | AC40
43 | Cc1cccn2c(CN[C@@H]3CCCC[C@H]3c3ccccc3)c(C(=O)N3CCOCC3)nc12 | -6.75% (inactive) | 
44 | O=C(c1ccc(NS(=O)(=O)c2cccc([N+](=O)[O-])c2)cc1)N1CCN(C(=O)c2ccco2)CC1 | -14.9% (inactive) | 
45 | COc1ccc(C(=O)C2CCCN(C(=O)/C=C/c3ccccn3)C2)c(C)c1 (stereo unspecified) | -6.34% (inactive) | 
46 | O=C(CCN1C(=O)/C(=C\C=C\c2ccccc2)SC1=S)Nc1ccc(C(=O)O)cc1 | -14.1% (inactive) | 
47 | COc1ccc2c(c1OC)C(=O)OC2CC(=O)O (stereo unspecified) | 3.81% (inactive) | 
48 | O=C(CC1NC(=O)NC1=O)Nc1ccc(Cl)cc1 (stereo unspecified) |  | > 35 µM (inactive)
49 | COc1ccc(C(CNS(=O)(=O)c2ccc(NC(C)=O)c(OC)c2)N2CCCCC2)cc1 (stereo unspecified) | 5.72% (inactive) | 
50 | Cc1ccc(-c2csc(=Nc3cccnc3)n2CCCN2CCCC2=O)cc1C | -13.4% (inactive) | 
51 | Cc1ccc(S(=O)(=O)CCC(=O)OCC(=O)Nc2cc(S(=O)(=O)N3CCOCC3)ccc2Cl)cc1 | -6.57% (inactive) | 
52 | COc1ccc(OC)c(NC(=O)c2c(NC(=O)CCC(=O)O)sc3c2CCCCC3)c1 | -20.2% (inactive) | 
53 | Cc1ccc(C(c2nnnn2C2CCCCC2)N2CCN3CCCC3C2)cc1 (stereo unspecified) | -9.01% (inactive) | 
54 | CN(C(=O)COC(=O)CN1C(=O)c2cccc([N+](=O)[O-])c2C1=O)c1ccccc1 | -5.58% (inactive) | 
55 | CCOc1ccc(CN2CCNC(=O)C2CC(=O)NCCCOc2cccnc2)cc1 (stereo unspecified) | -10.4% (inactive) | 
56 | O=C1NC2NC(=O)N(C(Cc3ccccc3)C(=O)O)C2N1 (stereo unspecified) | -4.43% (inactive) | 
57 | COc1ccc2c(CC(=O)NCC3CCC(C(=O)O)CC3)cc(=O)oc2c1 (stereo unspecified) | 15.1% (inactive) | 
58 | O=C(CSc1nnc(Cc2cccs2)n1-c1ccccc1)NC1CCCCC1 | -15.7% (inactive) | 
59 | CC(=O)NC(Cc1ccccc1)C(=O)OCC(=O)c1ccccc1 (stereo unspecified) | -12% (inactive) | 
60 | CCOc1ccc(CNC(=O)CCS(=O)(=O)c2ccc3c(c2)oc(=O)n3C)cc1 | 8.83% (inactive) | 
61 | COc1ccc(N2CCN(c3oc(-c4ccco4)nc3C#N)CC2)cc1 | 1.24% (inactive) | 
62 | Cc1cccc(N2CCN(C(=S)c3ccc(-c4ccccc4[N+](=O)[O-])o3)CC2)c1 | -6.03% (inactive) | 
63 | COC(=O)[C@@H]1C[C@@]2(O)[C@H](O)[C@H](O)[C@H](O)C[C@H]2N1Cc1cccc2ccccc12 | 8.8% (inactive) | 

Row | Structure (SMILES) | activation (HDL uptake increase) | AC40
64 | CN(C(=O)COC(=O)c1cccc(S(=O)(=O)N2CCOCC2)c1)C1CCS(=O)(=O)C1 (stereo unspecified) | 5.01% (inactive) | 
65 | CN(C)c1nc(C#N)nc(N2CCOCC2)n1 | 4.22% (inactive) | 
66 | C/C(=N\N1C(=O)c2ccccc2NC1c1ccco1)c1ccccc1O (stereo unspecified) | -54.6% (inactive) | 
67 | NC(=O)C1CCN(C(=O)c2ccc(NS(=O)(=O)c3ccc(F)c(F)c3)cc2)CC1 | -2.55% (inactive) | 
68 | CCOC(=O)c1csc(NC(=O)CN2CCN(C)CC2)n1 | 10.4% (inactive) | 
69 | CCN(CC(=O)Nc1c(F)cccc1F)C(=O)C1CCN(S(=O)(=O)c2ccc(F)cc2)CC1 | 11.6% (inactive) | 
70 | C[C@@H]1CN([C@H](C)CO)C(=O)c2cc(NC(=O)Nc3ccc(C(F)(F)F)cc3)ccc2O[C@H]1CN(C)Cc1ccc(Cl)c(Cl)c1 | -0.198% (inactive) | 
71 | Cc1ccc(CS(=O)Cc2ccc(C(=O)NCc3ccccc3)o2)cc1 (stereo unspecified) | 4.99% (inactive) | 
72 | CCCCCC1CC(CC(=O)O)C(=O)O1 (stereo unspecified) | -5.76% (inactive) | 
73 | O=S(=O)(NCCc1cn2ccccc2n1)c1ccc(-c2ccccc2)cc1 | -1.66% (inactive) | 
74 | COc1cc(C(CCN2CCCC(C)C2)c2c(OC)cc(OC)c3c(-c4ccccc4)cc(=O)oc23)cc(OC)c1OC (stereo unspecified) | -1.55% (inactive) | 
75 | Cc1ccccc1-c1nnc(SCC(=O)Nc2c(C)n(C)n(-c3ccccc3)c2=O)o1 | -18.8% (inactive) | 
76 | C[C@@H]1CN([C@H](C)CO)C(=O)c2cc(NC(=O)Nc3ccc(C(F)(F)F)cc3)ccc2O[C@H]1CN(C)S(=O)(=O)c1ccc(Cl)cc1 | 5.12% (inactive) | 
77 | COc1ccc(N2CC(NC(=O)N3CCN(C(=O)c4ccco4)CC3)CC2=O)cc1OC (stereo unspecified) | 11% (inactive) | 
78 | COc1ccc(CCN2CC(C(=O)NCc3cnn(C(C)C)c3)CCC2=O)cc1 (stereo unspecified) | -1.83% (inactive) | 
79 | CCCCn1c(=N)n(CCOc2ccc(C)cc2)c2ccccc21 | -6.96% (inactive) | 
80 | Cc1cc(C)nc(SCC(=O)OC(C)C(=O)Nc2ccccc2)n1 (stereo unspecified) | -8.43% (inactive) | 
81 | COc1ccccc1NC(=O)CCN1CCCCCC1 | -12.4% (inactive) | 
